PubChem BioAssay AID1996
Values after ≈ are worked out from the molar mass of the structure shown.

conditions: buffer; pH 7.4; 200.0 µM

With `N#CC1(NC(=O)CSc2nc3ccccc3s2)CCCCC1` as the compound, how does the solubility kinetic read?
The solubility kinetic was 46.4 µg/mL (≈ 140 µM).

With `CNC(=S)N(CCc1c(C)[nH]c2ccc(F)cc12)Cc1ccco1` as the compound, how does the solubility kinetic read?
Its solubility kinetic is 3 µg/mL (≈ 8.68 µM).

Which solubility kinetic does the source give for `O=C(/C=C/c1ccccc1[N+](=O)[O-])OC1CCCCC1=O` (centres undefined) here?
The solubility kinetic was 4.5 µg/mL (≈ 15.6 µM).

Which solubility kinetic does the source give for `CC(C)N1CC(C(=O)Nc2ccc(C#N)cc2)CC1=O` (centres undefined) here?
Its solubility kinetic is over 40.7 µg/mL.

With `Nc1ncnc(SCc2c(F)cccc2Cl)n1` as the compound, how does the solubility kinetic read?
Its solubility kinetic is 2.8 µg/mL (≈ 10.3 µM).

Which solubility kinetic does the source give for `CC(=O)N1CCN(c2ccccc2NC(=O)COc2ccccc2C)CC1` here?
Its solubility kinetic is 49.7 µg/mL (≈ 135 µM).

For `CCOc1ccccc1N1CC(C(=O)N(CC)C2CCS(=O)(=O)C2)CC1=O` (centres undefined), which solubility kinetic is on record?
The solubility kinetic was over 59.2 µg/mL.

With `O=C(Nc1ccccc1)C1CCN(C(=O)c2ccco2)CC1` as the compound, how does the solubility kinetic read?
Its solubility kinetic is over 44.8 µg/mL.

With `Cc1cc(C)c2c(n1)sc1c(=O)n(Cc3ccc(F)cc3)cnc12` as the compound, how does the solubility kinetic read?
Its solubility kinetic is under 0.2 µg/mL.

For `Cc1ccc(-c2csc(NC(=O)CN3CC(C)OC(C)C3)n2)cc1` (centres undefined), which solubility kinetic is on record?
The solubility kinetic was 29.5 µg/mL (≈ 85.4 µM).

Which solubility kinetic does the source give for `COc1ccc(OCC(O)CNS(=O)(=O)c2cccs2)cc1` (centres undefined) here?
Its solubility kinetic is over 51.5 µg/mL.

Which solubility kinetic does the source give for `Cc1cccc(C(=O)NC(=S)NC(C)c2ccccc2)c1` (centres undefined) here?
The solubility kinetic was 1 µg/mL (≈ 3.35 µM).

With `CC(C)c1ccccc1NC(=O)Nc1ccc2c(c1)OCO2` as the compound, how does the solubility kinetic read?
The solubility kinetic was 2.7 µg/mL (≈ 9.05 µM).

For `C=CCc1cccc2cc(C(=O)N3CCOCC3)c(=O)oc12`, which solubility kinetic is on record?
The solubility kinetic was 42.8 µg/mL (≈ 143 µM).

Which solubility kinetic does the source give for `COc1cccc(C(=O)Nc2ccc3c(c2)OCO3)c1OC` here?
The solubility kinetic was 36.8 µg/mL (≈ 122 µM).

Which solubility kinetic does the source give for `Brc1ccc(OCc2nc3ccccc3[nH]2)cc1` here?
The solubility kinetic was 2.4 µg/mL (≈ 7.92 µM).

Which solubility kinetic does the source give for `S=C(NCCc1c[nH]c2ccccc12)NC1CCCCC1` here?
The solubility kinetic was 2.8 µg/mL (≈ 9.29 µM).

With `COc1cc(C2SCC(=O)N2Cc2ccccc2)ccc1O` (centres undefined) as the compound, how does the solubility kinetic read?
Its solubility kinetic is over 47.3 µg/mL.

Which solubility kinetic does the source give for `COc1cccc(C(=O)NCCCNC(=O)c2cccc(OC)c2)c1` here?
The solubility kinetic was over 51.4 µg/mL.

Which solubility kinetic does the source give for `COc1ccc2oc(N)c(C=O)c(=O)c2c1` here?
The solubility kinetic was 30.8 µg/mL (≈ 141 µM).

With `c1coc(CNc2nc3ccccc3s2)c1` as the compound, how does the solubility kinetic read?
The solubility kinetic was 32.3 µg/mL (≈ 140 µM).

With `CC(OC(=O)C1CC1C)C(=O)Nc1ccc(Cl)cn1` (centres undefined) as the compound, how does the solubility kinetic read?
The solubility kinetic was 40.9 µg/mL (≈ 145 µM).

With `O=C(CSc1nc2ncccc2[nH]1)NCc1ccco1` as the compound, how does the solubility kinetic read?
Its solubility kinetic is over 43.2 µg/mL.

For `N#CSC(c1ccccc1)c1nc2ccccc2[nH]c1=O` (centres undefined), which solubility kinetic is on record?
The solubility kinetic was 26.9 µg/mL (≈ 91.7 µM).

Which solubility kinetic does the source give for `Fc1cccc(Cc2noc(CN3CCOCC3)n2)c1` here?
Its solubility kinetic is over 41.6 µg/mL.

For `CCCCCOc1ccc(C(=O)CCC(=O)N2CCCC2)cc1`, which solubility kinetic is on record?
Its solubility kinetic is over 47.6 µg/mL.

Which solubility kinetic does the source give for `C/C(=C\C(=O)c1ccc(Cl)cc1Cl)N(C)C` here?
The solubility kinetic was 3.8 µg/mL (≈ 14.7 µM).

Which solubility kinetic does the source give for `Cc1cccc(C)c1NC(=O)c1cnn(-c2ccccc2)c1C` here?
The solubility kinetic was over 45.8 µg/mL.

For `Cc1cc(C(=O)OCC(=O)NCc2ccccc2)c2ccccc2n1`, which solubility kinetic is on record?
Its solubility kinetic is 13.9 µg/mL (≈ 41.6 µM).

Which solubility kinetic does the source give for `Nc1ccc(Oc2ncccn2)c(Cl)c1` here?
The solubility kinetic was over 33.2 µg/mL.

With `Cc1ccc(-n2c(SCC(N)=O)nnc2-c2cnccn2)cc1` as the compound, how does the solubility kinetic read?
The solubility kinetic was over 49 µg/mL.

For `Cc1cc(C(=O)Nc2ccc(S(=O)(=O)N3CCCC3)cc2)no1`, which solubility kinetic is on record?
The solubility kinetic was 2.2 µg/mL (≈ 6.56 µM).

Which solubility kinetic does the source give for `CN(Cc1cccc(F)c1)C(=O)c1ccc(S(=O)(=O)N2CCCCCC2)cc1` here?
Its solubility kinetic is 25.4 µg/mL (≈ 62.8 µM).

For `CCc1ccccc1NC(=O)CC1SCCNC1=O` (centres undefined), which solubility kinetic is on record?
Its solubility kinetic is over 41.8 µg/mL.

Which solubility kinetic does the source give for `COc1ccccc1NC(=O)CCn1c(=S)oc2ccccc21` here?
Its solubility kinetic is 7 µg/mL (≈ 21.3 µM).

For `CC(C)NC(=O)c1ccc(-n2c(=S)[nH]c3ccccc3c2=O)cc1`, which solubility kinetic is on record?
Its solubility kinetic is 3.9 µg/mL (≈ 11.5 µM).

Which solubility kinetic does the source give for `CN1C(=O)NC(c2cccc([N+](=O)[O-])c2)C2=C1CCCC2=O` (centres undefined) here?
Its solubility kinetic is over 45.2 µg/mL.

With `CCc1ccc(S(=O)(=O)Nc2ccccn2)cc1` as the compound, how does the solubility kinetic read?
Its solubility kinetic is over 39.3 µg/mL.

For `O=C(/C=C/c1ccc([N+](=O)[O-])cc1)NCc1ccc2c(c1)OCO2`, which solubility kinetic is on record?
Its solubility kinetic is 0.9 µg/mL (≈ 2.76 µM).

With `CN(CC(=O)Nc1cccc(F)c1)CC(=O)Nc1ccccc1-c1ccccc1` as the compound, how does the solubility kinetic read?
The solubility kinetic was 17.3 µg/mL (≈ 44.2 µM).

Which solubility kinetic does the source give for `O=S(=O)(Nc1ccccc1)c1ccc(NS(=O)(=O)c2cccs2)cc1` here?
The solubility kinetic was 34.4 µg/mL (≈ 87.2 µM).

With `COc1ccc(-c2c(C#N)c(N)nc3c2CCC3)cc1` as the compound, how does the solubility kinetic read?
Its solubility kinetic is 0.3 µg/mL (≈ 1.13 µM).

Which solubility kinetic does the source give for `CC1CN(S(=O)(=O)c2ccccc2)CN1C(=O)N1CCOCC1` (centres undefined) here?
The solubility kinetic was over 50.9 µg/mL.

For `Cc1nc(N2CCN(c3ccc(Cl)cc3)CC2)[nH]c(=O)c1C`, which solubility kinetic is on record?
The solubility kinetic was 1.6 µg/mL (≈ 5.02 µM).

For `CCN(CC)CCOC(=O)C(O)(c1ccccc1)c1ccccc1.Cl`, which solubility kinetic is on record?
The solubility kinetic was over 54.6 µg/mL.

For `Cc1cc(C)c(S(=O)(=O)NCC(=O)NCc2ccco2)c(C)c1`, which solubility kinetic is on record?
The solubility kinetic was 44.2 µg/mL (≈ 131 µM).

Which solubility kinetic does the source give for `O=C(Nc1ccccc1)OCCCCCOC(=O)Nc1ccccc1` here?
Its solubility kinetic is under 0.4 µg/mL.

With `COc1ccccc1NC(=O)c1ccc(S(=O)(=O)N(C)c2ccccc2OC)cc1` as the compound, how does the solubility kinetic read?
Its solubility kinetic is 7 µg/mL (≈ 16.4 µM).

Which solubility kinetic does the source give for `CN(C)c1ccc(CCc2ccc(N)cc2)cc1` here?
The solubility kinetic was 21 µg/mL (≈ 87.4 µM).

With `CC(C)CC(NC(=O)OC(C)(C)C)C(=O)O.O` (centres undefined) as the compound, how does the solubility kinetic read?
Its solubility kinetic is over 37.4 µg/mL.

Which solubility kinetic does the source give for `COc1ccc(NS(=O)(=O)c2c(C)[nH]c(=O)[nH]c2=O)cc1OC` here?
Its solubility kinetic is over 51.2 µg/mL.

For `CC(C)(C)c1ccc(S(=O)(=O)N2CCN(CC(O)CN3CCOCC3)CC2)cc1` (centres undefined), which solubility kinetic is on record?
Its solubility kinetic is over 63.8 µg/mL.

For `COc1ccc2nc(NC(=O)c3cccs3)sc2c1`, which solubility kinetic is on record?
Its solubility kinetic is under 0.3 µg/mL.

Which solubility kinetic does the source give for `NC(=O)COC(=O)c1c2c(nc3ccccc13)CCCCC2` here?
Its solubility kinetic is over 44.8 µg/mL.

With `CCN(Cc1ccccc1)S(=O)(=O)c1ccc(F)cc1` as the compound, how does the solubility kinetic read?
Its solubility kinetic is 15.6 µg/mL (≈ 53.2 µM).

For `COc1cc2c(cc1/C=C/[N+](=O)[O-])OCO2`, which solubility kinetic is on record?
The solubility kinetic was 6.5 µg/mL (≈ 29.1 µM).

Which solubility kinetic does the source give for `CCc1nc2sc3c(c2c(=O)n1CCO)CCC3` here?
The solubility kinetic was over 39.7 µg/mL.

With `O=[N+]([O-])c1cccc(N2Cc3ccccc3C2)c1` as the compound, how does the solubility kinetic read?
Its solubility kinetic is 7.9 µg/mL (≈ 32.9 µM).

For `CCN(CC)CCN(C(=O)c1ccc2ccccc2c1)c1nc2ccc(OC)cc2s1.Cl`, which solubility kinetic is on record?
The solubility kinetic was 14.2 µg/mL.

With `CC(C)NC(=O)NC(=O)CSc1ncccn1` as the compound, how does the solubility kinetic read?
Its solubility kinetic is over 38.1 µg/mL.

Which solubility kinetic does the source give for `COc1cccc(N2CCN(C(=O)c3cc(C)oc3C)CC2)c1` here?
The solubility kinetic was over 47.2 µg/mL.

For `COc1ccccc1N1CC(C(=O)Nc2ccc(S(=O)(=O)N3CCCC3)cc2)CC1=O` (centres undefined), which solubility kinetic is on record?
Its solubility kinetic is over 66.5 µg/mL.

Which solubility kinetic does the source give for `O=C(NCCOc1ccccc1F)C1CC(=O)N(Cc2ccccc2)C1` (centres undefined) here?
The solubility kinetic was over 53.5 µg/mL.

Which solubility kinetic does the source give for `Clc1ccc(-c2csc(-c3ccncc3)n2)cc1` here?
The solubility kinetic was 0.3 µg/mL (≈ 1.1 µM).

Which solubility kinetic does the source give for `CCOC(=O)C1CCCN(S(=O)(=O)c2ccc3ccccc3c2)C1` (centres undefined) here?
The solubility kinetic was 13 µg/mL (≈ 37.4 µM).

Which solubility kinetic does the source give for `O=C(NCc1ccc(Cl)cc1)C1CCN(c2cnccn2)CC1` here?
Its solubility kinetic is over 49.6 µg/mL.

For `CC1(c2ccc([N+](=O)[O-])cc2)NC(=O)NC1=O` (centres undefined), which solubility kinetic is on record?
Its solubility kinetic is over 35.3 µg/mL.

Which solubility kinetic does the source give for `N#Cc1c(-c2ccncc2)c2c([nH]c1=O)-c1ccccc1OC2` here?
Its solubility kinetic is 14.9 µg/mL (≈ 49.5 µM).

Which solubility kinetic does the source give for `Cc1ccc(S(=O)(=O)NC(=O)c2ccc(F)cc2)c(C)c1` here?
Its solubility kinetic is over 46.1 µg/mL.

Which solubility kinetic does the source give for `O=S(=O)(c1ccccc1)N1CN(c2ccc(F)cc2F)c2nc3ccccc3nc21` here?
The solubility kinetic was 3.8 µg/mL (≈ 8.95 µM).

For `CC(=O)c1ccc(S(=O)(=O)N2CCC3(CC2)OCCO3)cc1`, which solubility kinetic is on record?
Its solubility kinetic is over 48.8 µg/mL.

Which solubility kinetic does the source give for `CCOC(=O)c1cc2c(ccn2C)n1CC(=O)N1C(C)CCCC1C` (centres undefined) here?
Its solubility kinetic is over 51.8 µg/mL.

For `C=C1SC(Nc2c(C)cccc2C)=NC12CCCCC2`, which solubility kinetic is on record?
The solubility kinetic was under 0.3 µg/mL.

Which solubility kinetic does the source give for `O=C(NCc1ccc2c(c1)CCO2)Nc1cccc(C(F)(F)F)c1` here?
The solubility kinetic was 1 µg/mL (≈ 2.97 µM).

With `COc1cc(S(=O)(=O)N2CCN(Cc3ccc4c(c3)OCO4)CC2)ccc1NC(C)=O.Cl` as the compound, how does the solubility kinetic read?
The solubility kinetic was 10.5 µg/mL.

For `O=C(/C=C/c1ccc(F)cc1)NC(=S)Nc1ccccc1O`, which solubility kinetic is on record?
Its solubility kinetic is 1.8 µg/mL (≈ 5.69 µM).

Which solubility kinetic does the source give for `COc1ccc(C(=O)CC(=O)C(=O)Nc2cccc(F)c2)cc1` here?
Its solubility kinetic is 19 µg/mL (≈ 60.3 µM).

For `O=C(Nc1nc(-c2ccc(Cl)s2)cs1)c1ccco1`, which solubility kinetic is on record?
The solubility kinetic was 9.2 µg/mL (≈ 29.6 µM).

For `O=C(CCC(=O)c1ccccc1)Nc1ccccc1`, which solubility kinetic is on record?
The solubility kinetic was 22.5 µg/mL (≈ 88.8 µM).

For `O=C(Nc1cccc(F)c1)C1CCN(C(=O)c2ccco2)CC1`, which solubility kinetic is on record?
Its solubility kinetic is 44.4 µg/mL (≈ 140 µM).

With `O=C(CSc1ncnc2sccc12)Nc1ccccc1F` as the compound, how does the solubility kinetic read?
Its solubility kinetic is 5.9 µg/mL (≈ 18.5 µM).

With `COc1cc(S(=O)(=O)N2CCOCC2)ccc1NC(=O)COC(=O)/C=C/c1cc(OC)c(OC)c(OC)c1` as the compound, how does the solubility kinetic read?
The solubility kinetic was 4.6 µg/mL (≈ 8.35 µM).

For `O=C1ON=C(c2ccccc2)/C1=C/c1ccccc1`, which solubility kinetic is on record?
The solubility kinetic was 34.7 µg/mL (≈ 139 µM).

Which solubility kinetic does the source give for `CN(C)C(=O)c1cc(C(=O)c2c(F)cccc2F)c[nH]1` here?
Its solubility kinetic is over 41.7 µg/mL.
